Measurements: US20040002069A1, “Hepatic gene expression profiling of streptozotocin-induced diabetes” (The Regents of the University of California, priority 2002, published 2004)

Key:
[1] = tested on: hepatic gene expression; test: Hepatic gene expression profiling of streptozotocin-induced diabetes (Affymetrix Mu11KsubA/Mu11KsubB arrays); format: in vivo, Swiss-Webster mice
Method: (§1) Mice and treatment. Female, 8-month old Swiss-Webster mice were purchased from Jackson Laboratories. Diabetes was induced by three weekly intraperitoneal injections of streptozotocin (STZ; 10 mg/100 g body weight) in 50 mM sodium citrate, pH 4.5. […] Only mice with blood glucose levels higher than 3 mg/ml were used. Mice injected with equivalent volumes of sodium citrate at the same times served as controls. Mice were sacrificed one week after the last injection. Mice were fasted for 24 h before sacrifice.
Measurement of Specific mRNA Levels. Total liver RNA was isolated from frozen tissue fragments using TRI Reagent (Molecular Research Center, Inc., Cincinnati, Ohio) as described previously (Cao et al., Proc. Natl. Acad. Sci. U.S. A. 98:10630-10635 (2001)). Specific mRNA levels were measured using the Affymetrix Mu11KsubA and Mu11KsubB high-density oligonucleotide arrays using standard Affymetrix protocols as described (Cao et al., Proc. Natl. Acad. Sci. U.S. A. 98:10630-10635 (2001)). Briefly, cDNA was prepared from total RNA using Superscript Choice System with a primer containing oligo(dT) and the T7 RNA polymerase promoter sequence. Biotinylated cRNA was synthesized from purified cDNA using the Enzo BioArray High Yield RNA Transcript Labeling Kit (Enzo Biochem), and CRNA purified using RNeasy mini columns (Qiagen, Chatsworth, Calif.). An equal amount of cRNA from each animal was separately hybridized to Mu11KsubA and Mu11ksubB high-density oligonucleotide arrays. The arrays were hybridized for 16 h at 45° C. After hybridization, arrays were washed, stained with streptavidin-phycoerythrin, and scanned using a Hewlett-Packard GeneArray Scanner.
Data Analysis and Statistics. Image analysis and data quantification were performed using the Affymetrix Microarray Suite 5.0. Affymetrix Mu11KsubA and Mu11KsubB arrays contain targets for more than 11,000 mouse genes and expressed sequence tags (ESTs). Each gene or EST is represented on the array by 20 perfectly matched (PM) oligonucleotides and 20 mismatched (MM) control probes that contain a single central-base mismatch. The signal intensities of PM and MM were used to calculate a discrimination score, R, which is equal to (PM−MM)/(PM+MM). A detection algorithm utilized R to generate a detection p-value and assign a Present, Marginal or Absent call using the Wilcoxon signed rank test (Wilcoxon F., Biometrics 1:80-83 (1945); Affymetrix, Inc., New Statistical Algorithms for Monitoring Gene Expression on GeneChip Probe Arrays, Technical Notes 1, Part No. 701097 Rev. 1 (2001)). Only genes that were “Present” in at least 2 out of 3 arrays per experimental group were considered for further analysis. A signal algorithm calculated the relative level of expression of each transcript using the One-Step Tukey's Biweight Estimate (Affymetrix, Inc., New Statistical Algorithms for Monitoring Gene Expression on GeneChip Probe Arrays, Technical Notes 1, Part No. 701097 Rev. 1 (2001)). This procedure generates a robust weighted mean that is relatively insensitive to outliers, even when they are extreme. Genes with a signal intensity lower than the mean array signal intensity in 2 or more of the 3 arrays in either experimental group were eliminated from the analysis. All arrays were scaled to a target intensity of 2500. To identify differentially expressed genes, each of the 3 control samples was compared with each of the 3 STZ-treated samples, resulting in 9 pairwise comparisons. […] Difference values (PM-MM) between the control and STZ-treated arrays were used to generate a one-sided p-value for each set of probes. Default boundaries between significant and not significant p-values were used (Affymetrix, Inc., New Statistical Algorithms for Monitoring Gene Expression on GeneChip Probe Arrays, Technical Notes 1, Part No. 701097 Rev. 1 (2001)). […]

[2] = Blood glucose measurements after streptozotocin injections; format: in vivo, Swiss-Webster mice; conditions: three weekly intraperitoneal injections, 10 mg/100 g body weight; one week after the third injection
Method: as §1

## CN(N=O)C(=O)N[C@H]1C(O)O[C@H](CO)[C@@H](O)[C@@H]1O (mixture of isomers) [STZ, streptozotocin]
[1]; GenBank W12681, liver, STZ vs control mice
  FC Hepatocyte growth factor activator HGFA (Hgfac) mRNA: −2.8 fold
[1]; GenBank W12899, liver, STZ vs control mice
  FC mb19d12.rl Soares mouse cDNA clone IMAGE:329879, similar to ACTIN, AORTIC SMOOTH MUSCLE: −2.9 fold
[1]; GenBank W12913, liver, STZ vs control mice
  FC Hepcidin antimicrobial peptide (Hamp) mRNA: −2.2 fold
[1]; GenBank W12941, liver, STZ vs control mice
  FC RIKEN cDNA 1110004C05 gene: 2.7 fold
[1]; GenBank W13835, liver, STZ vs control mice
  FC Golgi reassembly stacking protein 2 (Grs2-pending) mRNA: 3.5 fold
[1]; GenBank W13878, liver, STZ vs control mice
  FC DEAD/H (Asp-Glu-Ala-Asp/His) box polypeptide 1 mRNA: 1.9 fold
[1]; GenBank W17473, liver, STZ vs control mice
  FC Angiotensinogen (Agt) mRNA: −2.4 fold
[1]; GenBank W18904, liver, STZ vs control mice
  FC Tubulin cofactor a (Tbca) mRNA: 1.8 fold
[1]; GenBank W21013, liver, STZ vs control mice
  FC RIKEN cDNA 1110061M03 gene: −2.6 fold
[1]; GenBank W30137, liver, STZ vs control mice
  FC RIKEN cDNA 2410038A03 gene: 1.9 fold
[1]; GenBank W34349, liver, STZ vs control mice
  FC Coagulation factor XII (Hageman factor) (F12) mRNA: 2.0 fold
[1]; GenBank W53390, liver, STZ vs control mice
  FC Succinate dehydrogenase complex, subunit A, flavoprotein (Fp) (Sdha) mRNA: 2.0 fold
[1]; GenBank W64827, liver, STZ vs control mice
  FC RIKEN cDNA 1810030E05 gene: 2.4 fold
[1]; GenBank W85397, liver, STZ vs control mice
  FC mf48c06.rl Soares mouse embryo cDNA clone IMAGE:408298: 2.0 fold
[1]; GenBank W91222, liver, STZ vs control mice
  FC Cytochrome c oxidase, subunit VIIa 3 (Cox7a3) mRNA: 2.4 fold
[1]; GenBank W98255, liver, STZ vs control mice
  FC CD 81 antigen (Cd81) mRNA: −2.9 fold
[1]; liver of SID mice
  expression of Cytochrome c oxidase: increased
  expression of Glutathione S-transferase μ2: increased
  expression of Glutathione S-transferase π2: increased
  expression of NADH dehydrogenase 1: increased
  expression of RAB 1: increases
  expression of a proteasome subunit: Increased
  expression of alcohol dehydrogenase 1: decreases
  expression of arginase 1: increased
  expression of argininosuccinate synthetase 1: increased
  expression of complement component 4: decreases
  expression of corticosteroid binding globulin: Decreased
  expression of cytochrome P450, 1a2 gene: decreases
  expression of cytochrome P450, 2b13 gene: decreases
  expression of cytochrome P450, 2c29 gene: decreases
  expression of hepatic histidine ammonia lyase: Increased
  expression of hepatic mRNA for insulin-like growth factor binding protein 2: increases
  expression of inter-alpha trypsin inhibitor, heavy chain 3: increases
  expression of lactate dehydrogenase 1: increases
  expression of sorbitol dehydrogenase 1: decreases
  expression of the flavin-containing monooxygenase 5 gene: increases
  expression of the gene for apolipoprotein H: increases
  expression of thioether S-methyltransferase: decreases
  expression of two cytochrome P450, 3a subfamily members: increases
  mRNA for heat shock 70 kD protein 5: induced
  mRNA for hypoxia inducible factor 1: induced
  mRNA for prolyl 4-hydroxylase, beta polypeptide: induced
[1]; liver, control vs STZ-treated mice, more than 11,000 genes and ESTs assessed, 1.8-fold or greater
  number of known genes with a change in expression: 47
[2]
  diabetic state by blood glucose measurements: diabetic
